Non-standard residues stand in square brackets, D forms with d. Residues, ends and D or L forms follow the SMILES beside them. ξ: configuration not given here. dThr(3ξ) = CC(O)[C@@H](N)C(=O)O
Columns and labels:
[1] = system: timed-pregnant CD-1 mice exposed to IL-1β; test: Intrauterine IL-1β-induced perinatal inflammation model: neonatal survival and fetal growth; type: in vivo; details: for neonatal survival at birth: pups from IL-1β-treated dams (1 μg i.u., G16.5), compound 1 1 mg/Kg/12 h or Kineret 4 mg/Kg/12 h s.c., relative to vehicle
Description: Timed-pregnant CD-1 mice were exposed to 1 μg of IL-1β at 16.5 days of gestation (G16.5). Compound 1 (Cmpd 1), Kineret or vehicle was injected subcutaneously in the neck skin 30 minutes before stimulation with IL-1β, and mice delivery was assessed every hour until term (G19-G19.5).
One-way ANOVA compared to IL-1β+Veh. ***p<0.001. Control (n=9), sham (n=7), IL-1β (n=26), IL-1β+Compound 1 (n=22), IL-1β+Kin (n=11).
Intrauterine […] perinatal inflammation model. Timed-pregnant CD-1 mice at 16.5 days of gestation were steadily anesthetized with an isoflurane mask. After body hair removal from the peritoneal area, a 1.5 cm-tall median incision was performed with surgical scissors in the lower abdominal wall. The lower segment of the right uterine horn was then exposed and 1 μg of IL-1β was injected between two fetal membranes with care of not entering the amniotic cavity. The abdominal muscle layer was sutured and the skin closed with clips. One hundred μL of Compound 1 (1 mg/Kg/12 h), Kineret® (4 mg/Kg/12 h) or vehicle (sterile water) was injected subcutaneously in the neck 30 minutes before stimulation with IL-1β (to allow distribution of drugs to target tissues). Mice delivery was assessed every hour until term (G19-G19.5). Immediately after delivery, neonatal survival was assessed. Some pregnant mice were sacrificed before birth (24 h after the surgery) to either 1) perform caesarean section and photograph fetuses; 2) collect amniotic fluids; and 3) collect placentas. Only tissues and fluids from gestational sacs closer to the cervical end of the uterus were collected to ensure proximity with the IL-1β injection site. Tissues and fluids were snap-frozen in liquid nitrogen and kept at −80° C. for subsequent RNA purification or protein quantification by ELISA.

[2] = system: IL-1β, IL-6, IL-8 and PGF2α in neonatal lungs; test: ELISA of pro-inflammatory mediators in lungs of neonates; type: in vivo, mice; details: neonates from IL-1β-treated dams; tissue collected at birth
Description: FIGS. 3A to 3D show the levels of the pro-inflammatory mediators IL-1p (FIG. 3A), IL-6 (FIG. 3B), IL-8 (FIG. 3C) and PGF2a (FIG. 3D) in the lungs of neonates from sham and IL-1β-treated dams administered with vehicle, Compound 1 or Kineret, as assessed by ELISA. One-way ANOVA compared to IL-1β+Veh. *p<0.05, **p<0.01. n=4 pups in each groups.
(§1) Murine ELISA assays. The ELISA assay was performed using mouse Quantikine™ ELISA kits against IL-1β or IL-6 (R&D Systems®; #MLBOOC, M6000B), IL-8 and PGF2α (MyBioSource®; #MBS261967, #MBS264160) according to the manufacturer's instructions. Briefly, tissues (lungs, intestines and brains) collected at birth were homogenized in RIPA buffer containing proteases and 50 μL of either lung, intestine, or brain samples, recombinant mouse IL-1β, IL-6, IL-8 or PGF2α positive control or decreasing concentrations of a recombinant mouse IL-1β, IL-6, IL-8 or PGF2α standard were loaded into a 96-well plate pre-coated with a monoclonal anti-mouse IL-1β antibody and incubated for 2 hours at ambient temperature. Wells were washed 5 times and incubated with an enzyme-linked mouse polyclonal antibody specific to murine IL-1β for 2 hours. After another washing step, a substrate solution was added. The enzymatic reaction was stopped after 30 minutes and the plate was read at 450 nm, with wavelength correction set to 570 nm.

[3] = system: IL-1β, IL-6, IL-8 and PGF2α in fetal brain tissue; test: ELISA of pro-inflammatory mediators in brain of neonates; type: in vivo, mice; details: neonates from IL-1β-treated dams
Description: FIGS. 8A to 8D show the levels of the pro-inflammatory mediators IL-1β (FIG. 8A), IL-6 (FIG. 8B), IL-8 (FIG. 8C) and PGF2a (FIG. 8D) in fetal brain tissue of neonates from sham and IL-1β-treated dams administered with vehicle, Compound 1 or Kineret, as assessed by ELISA. One-way ANOVA compared to IL-1β+Veh. *p<0.05, **p<0.01, ***p<0.001. n=4 pups in each groups.
as §1

[4] = system: pups from IL-1β-treated dams; test: Behavioral test (spontaneous open field activity); type: in vivo, mice; details: PT15
Description: Behavioral test (Spontaneous openfield activity). Each animal (PND15 and PND28) was gently placed in the center of the openfield, allowed to freely explore undisturbed for 10 min, after which the animal was removed, the arena cleaned with 70% ethanol and dried prior to testing the next animal. Locomotor activity was indexed as the total distance travelled (cm). The evaluator was blinded to the groups. All movements were monitored and quantified using Smart software.

[5] = system: pregnant C57Bl/6 mice given LPS; test: Perinatal outcomes after maternal LPS (gestation length, perinatal survival, birth weight); type: in vivo
Description: The timing of birth (FIG. 11A); the number of viable pups per litter at birth (FIG. 11B); the proportion of pups surviving to one week (FIG. 11C), and birth weight at 12-24 h (FIG. 11D) were recorded (all mean±SEM). The number of treated dams in each group is shown in parentheses (n=10 per group, with n=48-57 pups weighed per group at birth) and data were analysed by ANOVA and post-hoc Sidak t-test; *P<0.05.
Animal and treatments. […] Mice were monitored via video recording until the time of parturition. Gestation length and perinatal survival (number of live pups at birth and % pups surviving to one week) were recorded. Pups were weighed at 12-24 h after birth.

[6] = LPS gd 16.5 + compound 2 1 mg/kg i.p. at 12 h intervals, 4 doses

Row | Compound | IL-1β-induced growth arrest of fetuses ([1]; caesarean section of dams after 24 h exposition to intrauterine IL-1β) | neonatal survival at birth [1] | reducing neonatal death, inflammation and inflammation-mediated damages in neonatal organs, compared with Kineret ([1]; summary statement) | levels of all cytokines tested (IL-1β, IL-6, IL-8, PGF2α) in neonatal lungs [2] | increased IL-1β and IL-6 levels in the brain [3] | increased IL-8 levels in the brain [3] | behavior/locomotion activity (distance travelled, open field) [4] | LPS-induced death in the first week of life [5, 6] | LPS-induced perinatal loss (number of viable pups at birth) [5, 6] | LPS-induced prematurity (gestation length) [5, 6] | perinatal outcomes ([5]; compound 2 alone, in the absence of LPS) | pup weight at 12-24 h after birth ([5]; compound 2 with or without LPS treatment)
1 | CC(C)C[C@@H](NC(=O)[C@@H](CCC(=O)O)NC(=O)[C@H](NC(=O)[C@H](NC(=O)[C@@H](Cc1ccc(O)cc1)NC(=O)[C@H](N)CCCNC(=N)N)C(C)O)C(C)C)C(=O)N[C@H](C)C(N)=O (stereo partly drawn) [compound 1] (H-[dR][dY][dThr(3ξ)][dV][dE][dL][dA]-NH2) | prevents this detrimental effect | significantly increased neonatal survival | significantly more effective | significant reduction | alleviated this effect | alleviated this effect | normalization of the behavior/locomotion activity | – | – | – | – | –
2 | CC(C)C[C@@H](NC(=O)[C@@H](CCC(=O)O)NC(=O)[C@H](NC(=O)[C@H](NC(=O)[C@@H](Cc1ccc(O)cc1)NC(=O)[C@H](N)CCCNC(=N)N)C(C)O)C(C)C)C(=O)N[C@H](C)C(=O)O (stereo partly drawn) [compound 2] (H-[dR][dY][dThr(3ξ)][dV][dE][dL][dA]-OH) | – | – | – | – | – | – | – | completely reversed | completely reversed | completely reversed | did not alter perinatal outcomes | no significant effect
3 | Kineret: recombinant form of the human interleukin-1 receptor antagonist (IL-1Ra), purchased from Swedish Orphan Biovitrum AB | – | but not Kineret®, significantly increased neonatal survival | – | only effective at significantly decreasing lung IL-1β levels | ineffective at significantly reducing | although significant, was weaker than that obtained with compound 1 | – | – | – | – | – | –
